These results are taken from patent publication US20160304477A1 (LAguna Pharmaceuticals, Inc., priority 2013, published 2016).

Where two headings read alike, the source gives them in different places.

The nature of data set [1]: Plasma concentrations of vanoxerine and its hydroxyl metabolites in patients after a 300 mg dose of vanoxerine (LC-MS/MS). Type of data set: in vivo, human. Particulars: 300 mg vanoxerine; for Concentrations (plasma), average: all 25 patients; for High concentration group average (plasma concentration): high concentration group (10 patients); for Low concentration group average (plasma concentration): low concentration group (15 patients). How it is done:
Each patient gave blood samples before administration of their dose, and then again at nine further time points, 30 minutes after admiration, 1, 2, 3, 4, 6, 8, 12, and 24 hours post administration.
Samples: A total of 270 human plasma samples were received (in duplicate). The samples were shipped frozen over dry ice. The samples were stored at −70° C. (nominal) until analysis.
Frozen samples were thawed at room temperature. Samples, calibrators, QC samples, sample blanks (blank plasma) and reagent blanks (water) were processed at room temperature. To 200 μL aliquots of each sample, calibrator, and QC sample are added 20 μL of 500 ng/mL of internal standard solution. A sample blank (blank plasma) and reagent blank (water) were also prepared, but without addition of internal standard solution (20 μL of diluent was added instead). To each sample, 200 μL of 1% ammonium hydroxide solution were added and vortex mixed. 3.0 mL of methyl tert-butyl ether were added and then vortex mix for 30 seconds. The sample is then centrifuged for 5 minutes at 4000 rpm and then transferred for about 30 minutes at −70° C. (nominal). The upper (organic) layer was transferred into an evaporation tubes and then evaporated under N2 stream at ˜50° C. for about 20 min. Samples were then reconstituted in 1000 μL reconstitution solution (80:20:0.1 water: acetonitrile: formic acid). Samples were mixed, allow to stand for about 3 minutes and mixed again. 900 μL of the sample solution was transferred to a 1.5 mL microcentrifuge tube and centrifuged for 5 minutes at 14000 rpm at room temperature. 800 μL of the sample solution was transferred to a glass autosampler vial, and then transferred to the autosampler for analysis. Samples were separated using reversed-phase liquid chromatography with a C18 column.
Detection was based on electro-spray interface in positive mode (ESI+) LC-MS/MS technique, using Micromass Quattro Premier XE MS/MS detector with MassLynx and QuanLynx software version 4.1. […] The MRM transition for all hydroxyl metabolites was m/z 467→203.

The conditions of data set [2]: healthy subjects, cited from earlier work.
The mark [3] stands for this setting: 1 h post administration, 1.00 = below LLOQ.
Setting [4] is: 2 h post administration, 1.00 = below LLOQ.
Setting [5] is: 3 h post administration, 1.00 = below LLOQ.
The mark [6] stands for this setting: 4 h post administration, 1.00 = below LLOQ.
[7] abbreviates: 6 h post administration, 1.00 = below LLOQ.
The mark [8] stands for this setting: 8 h post administration, 1.00 = below LLOQ.
The mark [9] stands for this setting: 12 h post administration, 1.00 = below LLOQ.
Where [10] appears, read: 24 h post administration, 1.00 = below LLOQ.
Where [11] appears, read: .5 h post administration, 1.00 = below LLOQ.
Setting [12] is: time -15 (before administration), 1.00 = below LLOQ.

16-hydroxyl vanoxerine [M02]: the “Concentrations (plasma), average” value in data set [1] (setting [3]) was 1.02 ng/mL; in data set [1] (setting [4]) it was 1.02 ng/mL; in data set [1] (setting [5]) it was 1.01 ng/mL; in data set [1] (setting [6]), 1.01 ng/mL; in data set [1] (setting [7]), 1.00 ng/mL; in data set [1] (setting [8]), 1.00 ng/mL. Further, the “Concentrations (plasma), average” value in data set [1] (setting [9]), in data set [1] (setting [10]), in data set [1] (setting [11]) and in data set [1] (setting [12]) was 1.00 ng/mL in each case. In addition, the “High concentration group average (plasma concentration)” value (from here on “High concentration group average”) in data set [1] (setting [3]) is 1.00 ng/mL; in data set [1] (setting [4]), 1.05 ng/mL; in data set [1] (setting [5]), 1.03 ng/mL; in data set [1] (setting [6]), 1.02 ng/mL; in data set [1] (setting [7]), 1.00 ng/mL; in data set [1] (setting [8]) it was 1.00 ng/mL. The “High concentration group average” value in data set [1] (setting [9]) came to 1.00 ng/mL; in data set [1] (24 h post administration), 0.00 ng/mL; in data set [1] (setting [11]) it was 1.00 ng/mL; in data set [1] (setting [12]), 1.00 ng/mL. Moreover, the “Low concentration group average (plasma concentration)” value (shortened to “Low concentration group average”) in data set [1] (setting [3]) was found to be 1.03 ng/mL; in data set [1] (setting [4]) it was 1.00 ng/mL; in data set [1] (setting [5]), 1.00 ng/mL; in data set [1] (setting [6]), 1.00 ng/mL; in data set [1] (setting [7]), 1.00 ng/mL; in data set [1] (setting [8]) it was 1.00 ng/mL. In addition, the “Low concentration group average” value in data set [1] (setting [9]), in data set [1] (setting [10]), in data set [1] (setting [11]) and in data set [1] (setting [12]) was 1.00 ng/mL throughout.
With 17-hydroxyl vanoxerine [M01], the “Concentrations (plasma), average” value in data set [1] (setting [3]) worked out at 7.51 ng/mL; in data set [1] (setting [4]), 19.65 ng/mL; in data set [1] (setting [5]), 18.68 ng/mL; in data set [1] (setting [6]) it was 16.42 ng/mL; in data set [1] (setting [7]), 11.48 ng/mL; in data set [1] (setting [8]), 8.98 ng/mL. The “Concentrations (plasma), average” value stood at 6.30 ng/mL in data set [1] (setting [9]), 3.66 ng/mL in data set [1] (setting [10]), 1.93 ng/mL in data set [1] (setting [11]) and 1.00 ng/mL in data set [1] (setting [12]). Also, the “High concentration group average” value in data set [1] (setting [3]) turned out to be 8.64 ng/mL; in data set [1] (setting [4]), 28.00 ng/mL; in data set [1] (setting [5]), 29.64 ng/mL; in data set [1] (setting [6]), 24.93 ng/mL; in data set [1] (setting [7]), 18.08 ng/mL; in data set [1] (setting [8]), 14.50 ng/mL. Moreover, the “High concentration group average” value in data set [1] (setting [9]) is 9.98 ng/mL; in data set [1] (24 h post administration), 1.72 ng/mL; in data set [1] (setting [11]), 2.55 ng/mL; in data set [1] (setting [12]), 1.00 ng/mL. For the same compound, the “Low concentration group average” value in data set [1] (setting [3]) came out at 6.76 ng/mL; in data set [1] (setting [4]) it was 14.09 ng/mL; in data set [1] (setting [5]), 11.38 ng/mL; in data set [1] (setting [6]) it was 10.34 ng/mL; in data set [1] (setting [7]), 7.08 ng/mL; in data set [1] (setting [8]), 5.30 ng/mL. For the same compound, the “Low concentration group average” value in data set [1] (setting [9]) worked out at 3.67 ng/mL; in data set [1] (setting [10]) it was 2.66 ng/mL; in data set [1] (setting [11]), 1.52 ng/mL; in data set [1] (setting [12]) it was 1.00 ng/mL.
Turning to `Fc1ccc(C(OCCN2CCN(CCCc3ccccc3)CC2)c2ccc(F)cc2)cc1` [Vanoxerine, 1-[2-[bis(4-fluorophenyl)methoxy]ethyl]-4-(3-phenylpropyl)piperazine], the side-effects result was “no side-effects should be expected” in data set [2] (daily repetitive dose of 50 mg); “some effects were seen with regard to concentration difficulties, increase systolic blood pressure, asthenia, and a feeling of drug influence” in data set [2] (higher doses of vanoxerine).
